Reference: patent publication US10391095B2, “DNA-PK inhibitors” (Vertex Pharmaceuticals Incorporated, priority 2012, dated 2019)

Molecular target: DNA-PK (Homo sapiens, UniProt P78527)
Test: DNA-PK inhibition assay (radiometric, 33P-ATP)
Type: biochemical
Conditions: 100 μM ATP, competitive tight-binding fit
Experimental: Compounds were screened for their ability to inhibit DNA-PK kinase using a standard radiometric assay. Briefly, in this kinase assay the transfer of the terminal ^33P-phosphate in ^33P-ATP to a peptide substrate is interrogated. The assay was carried out in 384-well plates to a final volume of 50 μL per well containing approximately 6 nM DNA-PK, 50 mM HEPES (pH 7.5), 10 mM MgCl2, 25 mM NaCl, 0.01% BSA, 1 mM DTT, 10 μg/mL sheared double-stranded DNA (obtained from Sigma), 0.8 mg/mL DNA-PK peptide ([…] obtained from American Peptide), and 100 μM ATP. Accordingly, compounds of the invention were dissolved in DMSO to make 10 mM initial stock solutions. Serial dilutions in DMSO were then made to obtain the final solutions for the assay. A 0.75 μL aliquot of DMSO or inhibitor in DMSO was added to each well, followed by the addition of ATP substrate solution containing ^33P-ATP (obtained from Perkin Elmer). The reaction was started by the addition of DNA-PK, peptide and ds-DNA. After 45 min, the reaction was quenched with 25 μL of 5% phosphoric acid. The reaction mixture was transferred to MultiScreen HTS 384-well PH plates (obtained from Millipore), allowed to bind for one hour, and washed three times with 1% phosphoric acid. Following the addition of 50 μL of Ultima Gold™ high efficiency scintillant (obtained from Perkin Elmer), the samples were counted in a Packard TopCount NXT Microplate Scintillation and Luminescence Counter (Packard BioScience). The Ki values were calculated using Microsoft Excel Solver macros to fit the data to the kinetic model for competitive tight-binding inhibition.

| SMILES | Ki |
| --- | --- |
| COc1ccc(Br)cc1C(C)CNc1cc(-c2ccc(C)nc2)ncn1 (stereo not drawn) [Compound 245] | < 30 nM |
| CNCCNc1ccc(-c2cc(NC[C@@H](C)c3ccnc4c3OCC4)ncn2)cn1 [Compound 483] | < 30 nM |
| Cc1ccc(-c2cc(NCC(C)c3cccc4c3OC(C)(C)C4)ncn2)cn1 (stereo not drawn) [Compound 85] | < 30 nM |
| COc1cc(C(=O)NCC(F)F)ccc1[C@H](C)CNc1cc(-c2ccc(C)nc2)ncn1 [Compound 405] | < 30 nM |
| Cc1ccc(-c2cc(NCC(C)c3cccc4c3OCCO4)ncn2)cn1 (stereo not drawn) [Compound 447] | < 30 nM |
| COC(=O)c1ccc(C(C)CNc2cc(-c3ccc(N4CCN(C(C)=O)CC4)nc3)ncn2)c(OC)c1 (stereo not drawn) [Compound 116] | < 30 nM |
| COc1ccccc1[C@H](C)CNc1cc(-c2cnc(C)nc2)ncn1 [Compound 138] | < 30 nM |
| CNC(=O)c1ccc([C@H](C)CNc2cc(-c3ccc(NC(C)=O)cc3)ncn2)c(OC)c1 [Compound 317] | < 30 nM |
| C[C@H](CNc1cc(-c2ccc(N(C)C)nc2)ncn1)c1ccnc2c1OCCO2 [Compound 460] | < 30 nM |
| CNC(=O)c1ccc([C@H](C)CNc2cc(-c3ccc(C)nc3)ncn2)c(OC2CCC2)c1 [Compound 478] | < 30 nM |
| C[C@H](CNc1cc(-c2cnc3c(cnn3C)c2)ncn1)c1ccnc2c1OCC2 [Compound 438] | < 30 nM |
| C#CCNc1ccc(-c2cc(NC[C@@H](C)c3ccc(C(=O)NC)cc3OC)ncn2)cn1 [Compound 385] | < 30 nM |
| Cc1ncc(-c2cc(NC[C@@H](C)c3ccnc4c3OCC4)ncn2)cn1 [Compound 416] | < 30 nM |
| CNC(=O)c1ccc(C(C)CNc2cc(-c3cnc4c(cnn4C4CCN(C)CC4)c3)ncn2)c(OC)c1 (stereo not drawn) [Compound 155] | < 30 nM |
| CCOc1ccccc1C(C)CNc1cc(-c2ccc(C)nc2)ncn1 (stereo not drawn) [Compound 91] | < 30 nM |
| CNC(=O)c1ccc(C(C)CNc2cc(-c3ccc4c(c3)c(C)nn4C3COC3)ncn2)c(OC)c1 (stereo not drawn) [Compound 279] | < 30 nM |
| COCCn1ncc2cc(-c3cc(NCC(C)c4cscc4OC)ncn3)cnc21 (stereo not drawn) [Compound 227] | < 30 nM |
| COc1ccsc1C(C)CNc1cc(-c2cnc3c(cnn3CC3CC3)c2)ncn1 (stereo not drawn) [Compound 232] | < 30 nM |
| COc1cscc1C(C)CNc1cc(-c2cnc3c(cnn3CCO)c2)ncn1 (stereo not drawn) [Compound 261] | < 30 nM |
| CNC(=O)c1ccc([C@H](C)CNc2cc(-c3ccc(N4CCOCC4)nc3)ncn2)c(OC)c1 [Compound 367] | < 30 nM |
| CNC(=O)c1ccc(C(C)CNc2cc(-c3ccc(OCCS(C)(=O)=O)nc3)ncn2)c(OC)c1 (stereo not drawn) [Compound 325] | < 30 nM |
| CNC(=O)c1ccc([C@H](C)CNc2cc(-c3ccc(C(=O)NC4CC4)cc3)ncn2)c(OC)c1 [Compound 318] | < 30 nM |
| COc1sccc1C(C)CNc1cc(-c2cnc3c(cnn3CCO)c2)ncn1 (stereo not drawn) [Compound 259] | < 30 nM |
| Cc1ccc(-c2cc(NC[C@@H](C)c3ccnc4c3OCC4C)ncn2)cn1 (single isomer, unassigned) [Compound 576] | < 30 nM |
| COc1ccccc1CCNc1cc(-c2ccc3c(cnn3C)c2)ncn1 [Compound 79] | < 30 nM |
| CNC(=O)c1ccc([C@H](C)CNc2cc(-c3ccc(NC4CC4)nc3)ncn2)c(OC)c1 [Compound 388] | < 30 nM |

Second part, the molecule after the results:

| Ki | SMILES |
| --- | --- |
| < 30 nM | CNC(=O)c1ccnc2c([C@H](C)CNc3cc(-c4ccc(C(=O)OC)s4)ncn3)cccc12 [Compound 774] |
| < 30 nM | CNC(=O)c1ccc([C@H](C)CNc2cc(-c3ccc4c(cnn4C)c3)ncn2)c(OC)c1 [Compound 293] |
| < 30 nM | CNC(=O)c1ccc([C@H](C)CNc2cc(-c3ccc(NC)nc3)ncn2)c(OC)c1 [Compound 358] |
| < 30 nM | CNC(=O)c1c(F)cnc2c([C@H](C)CNc3cc(-c4csc(-n5cccn5)n4)ncn3)cccc12 [Compound 782] |
| < 30 nM | CNC(=O)c1ccnc2c([C@H](C)CNc3cc(-c4cnc(C5CCC5)nc4)ncn3)ccc(F)c12 [Compound 851] |
| < 30 nM | CNC(=O)c1ccnc2c([C@H](C)CNc3cc(-c4ccc5c(c4)OCCN5C)ncn3)cccc12 [Compound 843] |
| < 30 nM | [2H]c1nc(C)nc([2H])c1-c1cc(NC[C@@H](C)c2cccc3c(C(=O)NC)ccnc23)ncn1 [Compound 844, (S)—N-methyl-8-(1-((2′-methyl-4′,6′-dideutero-[4,5′-bipyrimidin]-6-yl)amino)propan-2-yl)quinoline-4-carboxamide] |
| < 30 nM | CNC(=O)c1ccc([C@H](C)CNc2cc(-c3cnc4c(ccn4CC4CC4)c3)ncn2)c(OC)c1 [Compound 253] |
| < 30 nM | CNC(=O)c1c(F)cnc2c([C@H](C)CNc3cc(-c4ccc(C5(N)CC5)nc4)ncn3)cccc12 [Compound 941] |
| < 30 nM | CCN(C)c1ccc(-c2cc(NC[C@@H](C)c3ccc(C(=O)NC)cc3OC)ncn2)cn1 [Compound 362] |
| < 30 nM | CNC(=O)c1ccnc2c([C@H](C)CNc3cc(-c4ccc(N5CCOC(C)(C)C5)nc4)ncn3)cccc12 [Compound 733] |
| < 30 nM | CNC(=O)c1ccnc2c([C@H](C)CNc3cc(-c4ccc(NC(=O)OC)cc4)ncn3)cccc12 [Compound 750] |
| < 30 nM | CNC(=O)c1ccnc2c([C@H](C)CNc3cc(-c4ccc(F)nc4)ncn3)ccc(F)c12 [Compound 907] |
| < 30 nM | CNC(=O)c1ccnc2c([C@H](C)CNc3cc(-c4cnc(N5CCOCC5)c(C#N)c4)ncn3)cccc12 [Compound 946] |
| < 30 nM | CCNc1ncc(-c2cc(NC[C@@H](C)c3cccc4c(C(=O)NC)c(F)cnc34)ncn2)cn1 [Compound 978] |
| < 30 nM | C=C(CNc1cc(-c2ccc(C)nc2)ncn1)c1cccc2c(C(=O)NC)ccnc12 [Compound 467] |
| < 30 nM | CNC(=O)c1ccnc2c([C@H](C)CNc3cc(-c4cc(F)c(F)c(F)c4)ncn3)cccc12 [Compound 873] |
| < 30 nM | CCCNCCNc1ccc(-c2cc(NC[C@@H](C)c3cccc4c(C(=O)NC)ccnc34)ncn2)cn1 [Compound 705] |
| < 30 nM | CNC(=O)c1ccc(C(C)CNc2cc(-c3cc4cnn(C5COC5)c4cc3C)ncn2)c(OC)c1 (stereo not drawn) [Compound 283] |
| < 30 nM | CNC(=O)c1ccc(C(C)CNc2cc(-c3cnc4c(cnn4CC#N)c3)ncn2)c(OC)c1 (stereo not drawn) [Compound 441] |
| < 30 nM | Cc1ccc(-c2cc(NCC(C)c3cccc4nsnc34)ncn2)cn1 (stereo not drawn) [Compound 398] |
| < 30 nM | CNC(=O)c1ccnc2c([C@H](C)CNc3cc(-c4cnc(C(C)(C)OC)nc4)ncn3)ccc(F)c12 [Compound 929] |
| < 30 nM | CNC(=O)c1ncnc2c([C@H](C)CNc3cc(-c4ccc(C)nc4)ncn3)cccc12 [Compound 971, (S)—N-methyl-8-(1-((6-(6-methylpyridin-3-yl)pyrimidin-4-yl)amino)propan-2-yl)quinazoline-4-carboxamide] |
| < 30 nM | C[C@H](CNc1cc(-c2cc(F)c3ncccc3c2)ncn1)c1ccnc2c1OCC2 [Compound 597] |
| < 30 nM | CNCCCNc1cc(-c2cc(NC[C@@H](C)c3ccccc3OC)ncn2)ccn1 [Compound 209] |
| < 30 nM | CNC(=O)c1c(F)cnc2c([C@H](C)CNc3cc(-c4cnc(OC)c(CO)c4)ncn3)cccc12 [Compound 884] |
| < 30 nM | CNC(=O)c1ccc(C(C)CNc2cc(-c3cnc(C)nc3)ncn2)c(OC)c1 (stereo not drawn) [Compound 193] |
| < 30 nM | CNC(=O)c1ccnc2c([C@H](C)CNc3cc(-c4ccc(NS(C)(=O)=O)cc4)ncn3)cccc12 [Compound 680] |
